Assay results taken from patent US11377429B2, “Benzothia(di)azepine compounds and their use as bile acid modulators” (Albireo AB, priority 2020, dated 2022).

Key:
[1] = target: T1, Human LBAT (Homo sapiens, UniProt Q14973); assay: LBAT (h/m) assay, human LBAT-overexpressing cells, 3H-taurocholic acid uptake; type: cell-based; conditions: read-out: hLBAT IC50
T1 construct: expressed in transfected cells; cultured under Geneticin selection
T1 sequence (Q14973 1-349): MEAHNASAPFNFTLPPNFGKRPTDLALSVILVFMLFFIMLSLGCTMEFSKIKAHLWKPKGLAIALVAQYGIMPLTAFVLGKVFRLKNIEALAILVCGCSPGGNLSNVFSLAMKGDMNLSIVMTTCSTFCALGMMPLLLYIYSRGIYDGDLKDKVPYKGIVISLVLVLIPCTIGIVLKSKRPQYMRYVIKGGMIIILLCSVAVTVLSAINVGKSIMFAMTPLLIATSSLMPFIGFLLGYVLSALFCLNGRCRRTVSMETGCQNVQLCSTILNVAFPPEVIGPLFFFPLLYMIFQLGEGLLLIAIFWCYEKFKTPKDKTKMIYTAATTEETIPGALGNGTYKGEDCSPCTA
Procedure: LBAT (h/m) Assay Protocol
20,000 cells (Human or Mouse LBAT-overexpressing cells) were seeded in 96-wells plate (Corning CLS3809) in 100 μL MEM-alpha medium (Gibco 12571-063) supplemented with 10% FBS (Gibco 10438026) containing Geneticin (Gibco 10131-027) (1 mg/mL) and incubated at 37° C. in 5% CO2 for 24 hours. After incubation, media was decanted from the wells and cells were washed two times with 300 μL of basal MEM-alpha medium (FBS-free). After decanting basal MEM-alpha medium each time, plates were tapped against paper towel to ensure maximum removal of residual media. For human LBAT, incubation mix was prepared by adding test inhibitor dilutions (3-fold serial dilution in DMSO (Sigma D2650), 10 points) in MEM-alpha (without FBS) containing 0.3 μM 3H-taurocholic acid (ARC ART-1368) and 7.5 μM cold taurocholic acid (Sigma T4009) (maintaining 0.2% final DMSO concentration). For mouse LBAT, incubation mix was prepared by adding test inhibitor dilutions (3-fold serial dilution in DMSO, 10 points) in MEM-alpha (without FBS) containing 0.3 μM 3H-taurocholic acid and 25 μM cold taurocholic acid maintaining 0.2% final DMSO concentration). 50 μL of incubation mix containing test inhibitors was then added to the wells (in duplicate) and the plates were incubated for 20 minutes in a CO2 incubator at 37° C. After incubation, the reaction was stopped by keeping the plates on ice water mix for 2-3 minutes and then the incubation mix was aspirated completely from the wells. The wells were washed two times with 250 μL of chilled unlabeled 1 mM taurocholic acid dissolved in HEPES (Gibco 15630080)-buffered (10 mM) HBSS (Gibco 14175079) (pH 7.4). The plates were tapped against a paper towel after every wash to ensure maximum removal of blocking buffer.
100 μL of MicroScint-20 (PerkinElmer 6013621) was added to the wells and kept overnight at room temperature before reading the plates in TopCount NXT™ Microplate Scintillation and Luminescence Counter from PerkinElmer under 3H Test protocol (set at 120 seconds reading time per well, with normal plate orientation).
(§1) Preparation of Test Compound Dilutions
(§2) All test compounds were provided in powder form at room temperature. 10 mM DMSO stocks of the test compounds were prepared, aliquoted and stored at −20° C. From the 10 mM DMSO stock of the compounds, a 3-fold serial dilution in DMSO was prepared to get a total of 10 dilutions of the test compounds. 0.5 μL of this dilution in DMSO was added to 250 μL of FBS-free basal media containing 3H-taurocholic acid and cold taurocholic acid to prepare the incubation mixture.

[2] = target: T2, Human IBAT (Homo sapiens, UniProt Q12908); assay: IBAT (h/m) assay, human IBAT-overexpressing cells, 3H-taurocholic acid uptake; type: cell-based; conditions: read-out: hIBAT IC50
T2 construct: expressed in transfected cells; cultured under Puromycin selection
T2 sequence (Q12908 1-348): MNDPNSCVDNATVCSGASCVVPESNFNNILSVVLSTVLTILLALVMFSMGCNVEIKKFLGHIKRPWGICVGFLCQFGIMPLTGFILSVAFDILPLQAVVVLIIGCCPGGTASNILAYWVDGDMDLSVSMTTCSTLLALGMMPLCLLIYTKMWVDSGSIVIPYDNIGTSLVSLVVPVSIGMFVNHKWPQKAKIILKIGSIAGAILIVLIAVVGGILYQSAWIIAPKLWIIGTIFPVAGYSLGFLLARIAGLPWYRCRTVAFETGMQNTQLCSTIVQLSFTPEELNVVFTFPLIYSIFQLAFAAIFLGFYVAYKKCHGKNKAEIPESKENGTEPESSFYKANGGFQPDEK
Procedure: IBAT (h/m) Assay Protocol
10,000 cells (Human or Mouse IBAT-overexpressing cells) were seeded in 96-wells plate (Corning CLS3809) in 200 μL MEM-alpha medium (Gibco 12571-063) supplemented with 10% FBS (Gibco 10438026) containing Puromycin (Gibco A1113803) (10 μg/mL) and incubated at 37° C. in 5% CO2 for 48 hours. After incubation, media was decanted from the wells and cells were washed two times with 300 μL of basal MEM-alpha medium (FBS-free). After decanting basal MEM-alpha medium each time, plates were tapped against paper towel to ensure maximum removal of residual media. Test inhibitor dilutions (highest test concentration being 10 μM, 3-fold serial dilution, 10 points) prepared in DMSO (Sigma D2650) were added in incubation mix (maintaining 0.2% final DMSO concentration) containing 0.25 μM 3H-taurocholic acid (ARC ART-1368) and 5 μM of cold taurocholic acid (Sigma T4009). 50 μL of incubation mix containing test inhibitors was then added to the wells (in duplicate) and the plates were incubated for 20 minutes in a CO2 incubator at 37° C. After incubation, the reaction was stopped by keeping the plates on ice water mix for 2-3 minutes and then the incubation mix was aspirated completely from the wells. The wells were washed two times with 250 μL of chilled unlabeled 1 mM taurocholic acid dissolved in HEPES (Gibco 15630080)-buffered (10 mM) HBSS (Gibco 14175079) (pH 7.4). The plates were tapped against a paper towel after every wash to ensure maximum removal of blocking buffer. 100 μL of MicroScint-20 (PerkinElmer 6013621) was added to the wells and kept overnight at room temperature before reading the plates in TopCount NXT™ Microplate Scintillation and Luminescence Counter from PerkinElmer under 3H Test protocol (set at 120 seconds reading time per well).
as §1, §2

SMILES: CCCCC1(C)CN(c2ccc(F)cc2)c2cc(SC)c(OCC(O)C(=O)O)cc2S(=O)(=O)C1 (single isomer, unassigned) [1, diastereomer 1]
- IC50 [1]: 1640 nM
- IC50 [2]: 1 nM
